Laboratory results taken from patent publication US20220016048A1, “CANNABIDIOL-TYPE CANNABINOID COMPOUND” (GW Research Limited, priority 2018, published 2022).

Experiments:
[1] = test system: sub-chronic PCP-induced deficit in social behaviour in female Lister-Hooded rats; assay: social interaction test in sub-chronic PCP treated rats; type: in vivo, rat
Method: The aim of the current study was to investigate the ability of CBD-C4 (3, 10 & 30 mg/kg IP; 60 min pre-treatment (ptt)) in comparison with risperidone (an atypical antipsychotic; 0.1 mg/kg IP; 60 min pre-treatment), to antagonise a sub-chronic PCP (scPCP; 2 mg/kg IP; twice daily for 7-days; 7 day wash out)-induced deficit in social behaviour in female Lister-Hooded rats.
180 female Lister Hooded rats were used for this experiment, of which 90 were used for the drug study and 90 weight-matched untreated conspecifics were used as the companion rat, and their behaviour was not scored.
Rats were housed in groups of 5 under standard laboratory conditions under a 12-hr light: dark cycle, lights on at 0700 hr. Testing was carried out in the light phase. These studies were carried out in accordance with the Animals Scientific Procedures Act (UK, 1986).
CBD-C4 was used at doses of (3, 10, 30 mg/kg, i.p.) and risperidone was used at a dose of 0.1 mg/kg, i.p.
Rats were randomly assigned to two treatment groups and treated with vehicle, n=15 (distilled water, i.p.) or PCP, n=75 (2 mg/kg, i.p. twice daily for 7-days). This was followed by a 7-day wash out period before the rats were tested following acute treatment with CBD-C4, risperidone or vehicle.
Risperidone (0.1 mg/kg) was dissolved in a minimum volume of acetic acid, made up to volume with distilled water and pH adjusted to 6 with 0.1M NaOH and administered via the i.p. route in a volume of 1 ml/kg, 60 min prior to testing.
CBD-C4 (3, 10 & 30 mg/kg) was dissolved in 2:1:17 (Ethanol:Cremophor EL:Saline 0.9%). CBD-C4 was administered via the i.p. route in a volume of 5 ml/kg, 60 min prior to testing.
The social interaction test was performed in an open-field comprising a square box made of Plexiglas (52×52×31 cm) placed 27 cm above the floor on a moveable trolley. The floor of the box was white with black gridlines forming 9 identical squares on it. All other walls were black. A video camera connected to a video recorder and monitor was positioned above the box. The object used for the test consists of a heavy structure made of metal that cannot be displaced by the animals.
After a 7 day drug-free period, the rats were habituated to the test environment and arena prior to the test day. Habituation consisted of placing all rats from one cage together in the empty test arena for one hour for three days including the day before the test day.
Pairs of rats, weight matched (15-20 g) and unfamiliar to each other, receiving either no treatment (n=90 “conspecific” rats) or different treatments (PCP; n=15 “tested” rats, Vehicle; n=15 “tested” rats, or PCP+drug; n=60 “tested” rats) were placed in the test arena together for 10 minutes and behavior assessed as described below.
An inanimate object such as an unopened drink can was also placed in the centre of the arena to measure any differences in interaction of the test animal with an unfamiliar animal as opposed to an unfamiliar object. After each 10-minute trial, the object and arena were cleaned with 10% alcohol in an attempt to remove traces of any olfactory cues. All testing was carried out under standard room illumination levels (70 cd/m^2).
Behaviour in both trials was recorded on video for subsequent blind scoring. A behavioural scoring software program (Hindsight, Scientific programming services) was used to score the following parameters:
Investigative sniffing behaviour: sniffing the conspecific's snout or parts of the body including the anogenital region.
Following: rat moves after the conspecific i.e. a vehicle treated rat of the same species, around the arena.
Avoidances: actively turning away when approached by the conspecific animal.
Investigation of object: exploration of object placed in centre of the arena.
Locomotor activity is recorded by counting the total number of sectors (i.e. lines) crossed by the test rat.
All data were assessed for normality using D'Agostino and Pearson normality test. […]

[2] = test system: PCP-induced social behaviour deficit in female rats; conditions: background statement; cited from earlier work
[3] = test system: mouse model of seizure; assay: maximal electroshock (MES) test in the mouse; type: in vivo; conditions: 2 mg/kg i.p. 30 minutes before MES; p<0.001
Method: Mice were administered MES (50 mA, rectangular current: 0.6 ms pulse width, 0.4 s duration, 50 Hz) via corneal electrodes connected to a constant current shock generator (Ugo Basile: type 7801). The number of tonic convulsions was recorded.
Twelve mice were studied per group. The test was performed blind.
The test substance, CBD-C4, was evaluated at 5 doses (3, 10, 30, 100 and 200 mg/kg), administered i.p. 60 minutes before MES, and compared with a vehicle control group (administered under the same experimental conditions).
Diazepam (2 mg/kg i.p.), administered i.p. 30 minutes before MES, was used as a reference substance and was compared with a vehicle group (administered i.p. 60 minutes before MES).
Data was analysed by comparing treated groups with the appropriate vehicle control using Fisher's Exact Probability tests.

[4] = 0.1 mg/kg i.p., 60 min pre-treatment
[5] = CBD-C4 3, 10, 30 mg/kg, risperidone 0.1 mg/kg i.p., data not shown

## c1ccc(C2(N3CCCCC3)CCCCC2)cc1 [PCP, Phencyclidine]
[1]; PCP 2 mg/kg i.p. twice daily 7 days, 7-day wash out, P<0.001
  sniffing behaviour (scPCP vs vehicle): significantly reduced
[1]; PCP 2 mg/kg i.p. twice daily 7 days, 7-day wash out, P<0.01
  following behaviour (scPCP vs vehicle): significantly reduced
[1]; PCP 2 mg/kg i.p. twice daily 7 days, 7-day wash out, P=0.058
  increase in the duration of avoidance activity (scPCP vs vehicle): just failed to reach statistical significance

## O=C1CCc2ccc(OCCCCN3CCN(c4cccc(Cl)c4Cl)CC3)cc2N1 [aripiprazole]
[2]
  attenuation of PCP-induced social behaviour deficit: attenuated

## CN1C(=O)CN=C(c2ccccc2)c2cc(Cl)ccc21 [diazepam, Diazepam, reference compound]
[3]
  decrease in the number of tonic convulsions, as compared with vehicle controls: −75%

## CNCCC(Oc1ccc(C(F)(F)F)cc1)c1ccccc1 (stereo not shown) [fluoxetine]
[2]
  attenuation of PCP-induced social behaviour deficit: not attenuated

## O=C(CCCN1CCC(O)(c2ccc(Cl)cc2)CC1)c1ccc(F)cc1 [haloperidol]
[2]
  attenuation of PCP-induced social behaviour deficit: not attenuated

## Cc1nc2n(c(=O)c1CCN1CCC(c3noc4cc(F)ccc34)CC1)CCCC2 [risperidone]
[1]; [4]
  avoidance behaviour compared to the scPCP-treated group: significantly decreased
  following behaviour: no significant effect
  sniffing behaviour: no significant effect
[1]; [5]
  line crossings (locomotor activity): no significant effect
  object exploration: no significant effect

## O=C1Cc2cc(CCN3CCN(c4nsc5ccccc45)CC3)c(Cl)cc2N1 [ziprasidone]
[2]
  attenuation of PCP-induced social behaviour deficit: attenuated
